The text below walks through data of ChEMBL document CHEMBL1201862, “PubChem BioAssay data set” (2004).

Holding throughout (assay): NCI tumour cell line growth inhibition, 48 h
For assay [1], the system named is A549.
For assay [2], the system named is CCRF-CEM.
Assay [3] concerns COLO 205.
The subject of assay [4] is EKVX.
Assay [5] deals with HCT-116.
Assay [6] concerns HCT-15.
The subject of assay [7] is IGROV-1.
Assay [8] relates to M14.
For assay [9], the system named is MDA-MB-435.
For assay [10], the system named is MDA-N.
The subject of assay [11] is NCI-H226.
Assay [12] concerns NCI-H23.
The subject of assay [13] is NCI/ADR-RES.
The subject of assay [14] is OVCAR-8.
Assay [15] has as its system SK-MEL-2.
In assay [16] the test system is SK-MEL-5.
Assay [17] deals with SN12C.
Assay [18] has as its system SNB-75.
Assay [19] deals with TK-10.
Assay [20] has as its system UACC-257.

Each structure is given as a SMILES string.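 48-hour exposure; five concentrations; linearly interpolated endpoints. GI50: concentration for 50% inhibition of growth.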 Activity calls are given as the source filed them. Rule as the data show it: active = GI50 up to about 1.1 µM and inactive = higher.

Regarding `O=C1/C(=C/c2ccco2)N=C(c2ccccc2)N1c1ccc(S(=O)(=O)Nc2nccs2)cc1`, the GI50 in [1] was 89.7 µM (inactive); in assay [2], 75.7 µM (inactive); in assay [3], > 100 µM (inactive); in [4] it was 33.2 µM (inactive); in [5], > 100 µM (inactive); in assay [6], 28.9 µM. Besides, the GI50 in assay [7], in assay [8], in assay [9], in assay [10], in assay [11] and in assay [12] was > 100 µM (inactive) throughout. In addition, the GI50 in assay [13] was > 100 µM (inactive); in [14], 65.5 µM (inactive); in assay [15] it was > 100 µM (inactive); in assay [16], 87.9 µM (inactive); in assay [17], > 100 µM (inactive); in assay [18] it was > 100 µM (inactive). Moreover, the GI50 in assay [19] was > 100 µM (inactive); in assay [20] it was 27.6 µM (inactive).
As to `O=[N+]([O-])c1cc(/N=N/c2c(O)ccc3cc(S(=O)(=O)O)ccc23)c(O)c([N+](=O)[O-])c1`, the GI50 in [1] was > 100 µM (inactive); in [2], 18.9 µM (inactive); in assay [3], > 100 µM (inactive); in [4], > 100 µM (inactive); in assay [5], > 100 µM (inactive); in assay [6], 51.8 µM. The GI50 in assay [7] is > 100 µM (inactive); in [8], > 100 µM (inactive); in assay [9], > 100 µM (inactive); in assay [10], > 100 µM (inactive); in assay [11], 47.9 µM (inactive); in assay [12], > 100 µM (inactive). Further, the GI50 in [13] is > 100 µM (inactive); in assay [14], 35.7 µM (inactive); in [15], > 100 µM (inactive); in assay [16], > 100 µM (inactive); in [17], > 100 µM (inactive); in assay [18] it was > 100 µM (inactive). Moreover, the GI50 in assay [19] and in assay [20] was > 100 µM (inactive) each time.
